This experiment has as its target factor B (Homo sapiens, UniProt P00751). Kind of experiment: factor B inhibition assay of Biological Example 1. Further details: CVF-Bb complex prepared from purified cobra venom factor (1 μM), recombinant human complement factor B; made in house; host or cells: drosophila cells (factor B); E. coli (factor D used to form the complex). The settings on record: IC50 (nM), assay of Biological Example 1 (Table 1). The class given is biochemical.

Sequence of factor B (P00751 260-764 limits assumed): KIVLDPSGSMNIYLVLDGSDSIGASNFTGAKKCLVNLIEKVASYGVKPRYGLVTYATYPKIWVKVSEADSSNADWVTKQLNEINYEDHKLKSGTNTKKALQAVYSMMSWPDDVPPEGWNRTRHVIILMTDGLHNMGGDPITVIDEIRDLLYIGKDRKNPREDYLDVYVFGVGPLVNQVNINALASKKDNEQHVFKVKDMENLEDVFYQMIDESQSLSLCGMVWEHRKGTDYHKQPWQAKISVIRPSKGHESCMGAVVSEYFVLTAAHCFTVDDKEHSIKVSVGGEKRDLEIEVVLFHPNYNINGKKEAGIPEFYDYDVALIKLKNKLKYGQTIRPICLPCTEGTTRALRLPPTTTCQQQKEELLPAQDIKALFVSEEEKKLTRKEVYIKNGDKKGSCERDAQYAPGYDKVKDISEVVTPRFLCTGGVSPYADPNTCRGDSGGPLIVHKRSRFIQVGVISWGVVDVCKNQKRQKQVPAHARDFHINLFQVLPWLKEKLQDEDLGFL
Sequence of factor B (Q91132 23-649 partner limits assumed): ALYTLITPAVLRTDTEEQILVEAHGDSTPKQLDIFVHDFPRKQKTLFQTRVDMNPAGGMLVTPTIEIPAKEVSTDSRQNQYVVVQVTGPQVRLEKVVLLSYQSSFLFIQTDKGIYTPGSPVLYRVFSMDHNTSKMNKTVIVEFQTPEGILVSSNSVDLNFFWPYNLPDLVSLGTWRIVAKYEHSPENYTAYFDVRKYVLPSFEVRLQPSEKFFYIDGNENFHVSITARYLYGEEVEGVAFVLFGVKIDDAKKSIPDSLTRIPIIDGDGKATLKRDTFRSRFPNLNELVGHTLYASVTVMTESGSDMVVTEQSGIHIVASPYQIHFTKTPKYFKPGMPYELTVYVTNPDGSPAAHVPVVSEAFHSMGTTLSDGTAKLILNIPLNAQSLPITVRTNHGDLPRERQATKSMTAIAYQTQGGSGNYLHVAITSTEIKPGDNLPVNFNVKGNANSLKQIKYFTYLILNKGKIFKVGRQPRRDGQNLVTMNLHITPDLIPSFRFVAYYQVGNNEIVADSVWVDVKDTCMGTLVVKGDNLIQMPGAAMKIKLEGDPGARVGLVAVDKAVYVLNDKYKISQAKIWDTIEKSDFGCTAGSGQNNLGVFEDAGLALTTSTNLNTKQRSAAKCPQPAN
Sequence of factor B (Q91132 733-984 partner limits assumed): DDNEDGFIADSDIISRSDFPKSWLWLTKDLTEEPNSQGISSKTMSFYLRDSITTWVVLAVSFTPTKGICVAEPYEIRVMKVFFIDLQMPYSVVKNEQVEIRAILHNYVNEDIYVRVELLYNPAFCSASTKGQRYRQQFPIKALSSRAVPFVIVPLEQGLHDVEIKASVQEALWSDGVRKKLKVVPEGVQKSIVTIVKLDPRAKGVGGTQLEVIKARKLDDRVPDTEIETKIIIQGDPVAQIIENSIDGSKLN
Sequence of factor B (Q91132 1264-1642 partner limits assumed): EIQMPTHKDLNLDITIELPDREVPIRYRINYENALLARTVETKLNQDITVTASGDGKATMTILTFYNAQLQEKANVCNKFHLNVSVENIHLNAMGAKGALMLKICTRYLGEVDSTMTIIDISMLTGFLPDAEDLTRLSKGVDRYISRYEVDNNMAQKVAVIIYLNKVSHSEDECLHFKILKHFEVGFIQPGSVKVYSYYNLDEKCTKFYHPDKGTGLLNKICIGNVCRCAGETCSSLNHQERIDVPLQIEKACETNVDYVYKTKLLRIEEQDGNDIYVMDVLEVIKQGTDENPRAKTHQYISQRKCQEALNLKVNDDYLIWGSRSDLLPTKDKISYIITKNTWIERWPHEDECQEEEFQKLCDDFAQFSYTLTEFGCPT

For `Cc1cc(S(C)(=O)=O)c(C(N)(c2nc3cc(C#N)ccc3[nH]2)C(F)(F)F)c2cc[nH]c12` (single isomer, unassigned; (-)) [17-B b) (−), (−)-2-(1-amino-2,2,2-trifluoro-1-(7-methyl-5-(methylsulfonyl)-1H-indol-4-yl)ethyl)-1H-benzo[d]imidazole-5-carbonitrile], the IC50 came to 1330 nM.

Consider `COc1cc(C)c2[nH]ccc2c1C(O)c1nc2cc(C#N)ccc2[nH]1` (single isomer, unassigned; (-)) [24-B b) (−), (−)-2-(hydroxy(5-methoxy-7-methyl-1H-indol-4-yl)methyl)-1H-benzo[d]imidazole-5-carbonitrile], for which the IC50 stood at 90 nM.

As to `CCOc1cc(C)c2[nH]ccc2c1C(O)c1nc2cc(C#N)ccc2[nH]1` (single isomer, unassigned; (-)) [24-C b) (−), (−)-2-((5-ethoxy-7-methyl-1H-indol-4-yl)(hydroxy)methyl)-1H-benzo[d]imidazole-5-carbonitrile], the IC50 turned out to be 600 nM.

Turning to `Cc1cc(OC(C)C)c(C(O)c2nc3cc(C#N)ccc3[nH]2)c2cc[nH]c12` (single isomer, unassigned; (-)) [24-D b) (−), (−)-2-(hydroxy(5-isopropoxy-7-methyl-1H-indol-4-yl)methyl)-1H-benzo[d]imidazole-5-carbonitrile], the IC50 is 490 nM.

With `CCOc1cc(C)c2[nH]ccc2c1C(C)(O)c1nc2cc(C#N)ccc2[nH]1` (single isomer, unassigned; (-)) [26-D b) (−), (−)-2-(1-(5-ethoxy-7-methyl-1H-indol-4-yl)-1-hydroxyethyl)-1H-benzo[d]imidazole-5-carbonitrile], the IC50 came out at 440 nM.

On to `Cc1cc(OC(C)C)c(C(C)(O)c2nc3cc(C#N)ccc3[nH]2)c2cc[nH]c12` (single isomer, unassigned; (-)) [26-E b) (−), (−)-2-(1-hydroxy-1-(5-isopropoxy-7-methyl-1H-indol-4-yl)ethyl)-1H-benzo[d]imidazole-5-carbonitrile], for which the IC50 worked out at 170 nM.

In the case of `CCC(O)(c1nc2cc(C#N)ccc2[nH]1)c1c(OC(C)C)cc(C)c2[nH]ccc12` (single isomer, unassigned; (-)) [26-F b) (−), (−)-2-(1-hydroxy-1-(5-isopropoxy-7-methyl-1H-indol-4-yl)propyl)-1H-benzo[d]imidazole-5-carbonitrile], the IC50 was found to be 380 nM.

With `Cc1cc(OCC2CC2)c(C(C)(O)c2nc3cc(C#N)ccc3[nH]2)c2cc[nH]c12` (single isomer, unassigned; (-)) [26-G b) (−), (−)-2-(1-(5-(cyclopropylmethoxy)-7-methyl-1H-indol-4-yl)-1-hydroxyethyl)-1H-benzo[d]imidazole-5-carbonitrile], the IC50 amounted to 4380 nM.

`[2H]C([2H])([2H])C(OC)(c1nc2cc(C#N)ccc2[nH]1)c1c(OC)cc(C)c2[nH]ccc12` (single isomer, unassigned; (-)) [27-E b) (−), (−)-2-((^2H3)methyl(methoxy)(5-methoxy-7-methyl-1H-indol-4-yl)methyl)-1H-benzo[d]imidazole-5-carbonitrile]: the IC50 worked out at 4 nM.

On to `[2H]C([2H])([2H])OC(C)(c1nc2cc(C#N)ccc2[nH]1)c1c(OC)cc(C)c2[nH]ccc12` (single isomer, unassigned; (-)) [27-F b) (−), (−)-2-(1-(^2H3)methoxy-1-(5-methoxy-7-methyl-1H-indol-4-yl)ethyl)-1H-benzo[d]imidazole-5-carbonitrile], for which the IC50 stood at 9 nM.

In the case of `COc1cc(C)c2[nH]cc(Cl)c2c1C(O)c1nc2cc(C#N)ccc2[nH]1` (single isomer, unassigned; (-)) [28-C b) (−), (−)-2-((3-chloro-5-methoxy-7-methyl-1H-indol-4-yl)(hydroxy)methyl)-1H-benzo[d]imidazole-5-carbonitrile], the IC50 came to 140 nM.

One may read the IC50 as the concentration needed to halve the response being measured.

Values taken from patent US9056874B2, “Complement pathway modulators and uses thereof” (NOVARTIS AG, priority 2012, dated 2015).
